pIC50: −log10 of the molar value.
Molecular target: T1, GTPase KRas [1-169,G12C,C118A] (Homo sapiens, UniProt P01116, C118A/G12C)
T1 construct: 1-169
T1 sequence (P01116 1-169 G12C/C118A): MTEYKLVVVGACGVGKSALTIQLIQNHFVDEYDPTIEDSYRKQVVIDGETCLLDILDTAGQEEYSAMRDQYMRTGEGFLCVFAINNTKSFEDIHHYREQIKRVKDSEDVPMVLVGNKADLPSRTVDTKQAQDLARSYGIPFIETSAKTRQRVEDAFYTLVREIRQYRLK

C=CC(=O)N1CC2(CCN(c3nc4c(c(N[C@@H](CC(C)C)Cn5ccnn5)n3)CCC(C)(C)C4)C2)C1 [WO2022093856, Example 1-47]
pIC50: 6.09

Reference: BindingDB's records for patent WO2022093856 (AMGEN INC., 2022)
